Test results taken from KR20090133069A, “형질전환 성장인자의 활성을 가지는 펩타이드 및 그의 용도” ((주)케어젠, priority 2009, dated 2009).

Assays:
NIH-3T3 세포 = experiment: Peptide stability: storage at 40℃ in 50 mM Tris-HCl (pH 8.0), remaining activity by MTT assay; assay type: physicochemical; settings: 50 mM Tris-HCl pH 8.0, sampled at days 0-100, peptide 10 ㎍/ml, TGF-β1 1 ㎍/ml, Fig. 3
C57BL/6 마우스의 멜라노사이트 = experiment: Melanin production in melanocytes induced with α-MSH; assay type: cell-based, mouse; settings: α-MSH 200 μg/ml; peptide 10 μg/ml; 3 days; Fig. 4
타이로시나아제 = experiment: Tyrosinase activity (L-DOPA, 405 nm) in lysate of B16F10 cells treated with α-MSH; assay type: cell-based, mouse; settings: peptide 1 and 10 μg/ml, 4 days, versus α-MSH alone, Fig. 6
B16F10 세포 = experiment: Microscopic observation of melanosomes in B16F10 cells treated with α-MSH; assay type: cell-based, mouse; settings: α-MSH 200 μg/ml; peptide 10 μg/ml; 4 days; Fig. 7
[1] = system: TRP1(tyrosinase-related protein-1); experiment: RT-PCR of melanogenesis marker TRP1 in B16F10 cells treated with α-MSH; assay type: cell-based, mouse; settings: α-MSH plus peptide 10 μg/ml; 4 days; Fig. 8
TRP2 = experiment: RT-PCR of melanogenesis marker TRP2 in B16F10 cells treated with α-MSH; assay type: cell-based, mouse; settings: α-MSH plus peptide 10 μg/ml; 4 days; Fig. 8
[2] = system: MITF(microphthalmia-associated transcription factor); experiment: RT-PCR of melanogenesis marker MITF in B16F10 cells treated with α-MSH; assay type: cell-based, mouse; settings: α-MSH plus peptide 10 μg/ml; 4 days; Fig. 8
프로콜라겐 = experiment: Procollagen production in NIH3T3 fibroblasts (ELISA); assay type: cell-based; settings: peptide 1 and 10 μg/ml, 72 h, Fig. 9
피브로넥틴 = experiment: Fibronectin production in NIH3T3 fibroblasts (ELISA); assay type: cell-based; settings: peptide 1 and 10 μg/ml, 72 h, Fig. 10
HaCat 세포 = experiment: Cytotoxicity test, SRB colorimetry, HaCat cells; assay type: cell-based; settings: 10 ng/ml to 100 μg/ml, 72 h, Fig. 11
NIH3T3 세포 = experiment: Cytotoxicity test, SRB colorimetry, NIH3T3 cells; assay type: cell-based; settings: 10 ng/ml to 100 μg/ml, 72 h, Fig. 11
B16F10 세포주 = experiment: Cytotoxicity test, SRB colorimetry, B16F10 cells; assay type: cell-based; settings: 10 ng/ml to 100 μg/ml, 72 h, Fig. 11

Row | Substance | remaining activity over storage time (stability) (NIH-3T3 세포) | melanin production (visual) (C57BL/6 마우스의 멜라노사이트) | decrease of tyrosinase activity (타이로시나아제) [%] | melanosomes induced by α-MSH (microscopy) (B16F10 세포) | TRP1 expression (RT-PCR) [1] | TRP2 expression (RT-PCR) (TRP2) | MITF expression (RT-PCR) [2] | procollagen production (프로콜라겐) | fibronectin production (피브로넥틴) | cell number / cytotoxicity (HaCat 세포) | cell number / cytotoxicity (NIH3T3 세포) | cell number / cytotoxicity (B16F10 세포주)
1 | 재조합 TGF-β1: 대장균으로부터 생산된 재조합 TGF-β1(Sigma), control in the stability test | 활성도가 급격히 감소됨 |  |  |  |  |  |  |  |  |  |  | 
2 | NH2-Gly-Arg-Gly-Asp-Tyr-Leu-Arg-Ser-Ala-Asp-Thr-OH (H-GRGDYLRSADT-OH) [서열2 펩타이드] | 활성도가 오랫동안 지속됨 | α-MSH를 처리하지 않았을 때와 유사한 멜라닌 생성 | ≥ 30 | 사라지는 | 발현을 억제한다 | 발현을 억제한다 | 발현을 억제한다 | 우수한 프로콜라겐 생성 촉진능 | 우수한 피브로넥틴 생성 촉진능 | 세포 수의 감소는 전혀 관찰 되지 않았으며 | 세포 수의 감소는 전혀 관찰 되지 않았으며 | 세포 수의 감소는 전혀 관찰 되지 않았으며
